This passage reports EC50 results from patent US9682999B2, “Benzofuran compounds for the treatment of hepatitis C virus infections” (Glaxo Group Limited, priority 2011, dated 2017).

For orientation: EC50 means the concentration at which the effect is half-maximal.

Some results are limits rather than exact numbers.

Experiment [1] concerns sub-genomic HCV NS3-NS5B replicon genotype 1a C316Y (Huh-7 cells). As to the kind of experiment: Replicon luciferase cell based assay, genotype 1a C316Y. The settings on record: Hepatitis C virus, Huh-7, 48 h, read-out: EC50 1a 316Y. The procedure:
(§1) 150 μL of a 1 mM stock solution in DMSO of each test compound was transferred into in the first column of a 96 well, V-bottom microplate, to give 200 times the top concentration of the required dilution series. Aliquots of 50 μL were added to each well of the remaining rows containing 100 μL of DMSO giving a 1:3 dilution series over ten points. Columns 11 and 12 contained DMSO only for the positive and negative control, respectively. 10 μL of each well were transferred into 90 μL of DMEM medium (Invitrogen #41965-039) supplemented with 5% v/v foetal calf serum, 1% v/v non-essential amino acids solution, 100 units/ml penicillin, 100 μg/ml streptomycin and 2 mM L-glutamine to give 20 times the top concentration of the required dilution series.
(§2) Suspensions were prepared from cultures of Huh-7 cells stably transfected with sub-genomic HCV NS3-NS5B replicons of either genotype 1b (the ET subline described by Pietschmann, T., Lohmann, V., Kaul, A., Krieger, N., Rinck, G., Rutter, G., Strand, D. & Bartenschlager, R., Journal of Virology, 2002, 76, 4008-4021), genotype 1a (subline 1.19 constructed in-house from H77 SG-Neo containing adaptive mutations P1496L and S2204I as described by Blight, K. J., McKeating, J. A., Marcotrigiano, J., and Rice, C. M. Journal of Virology, 2003, 77, 3180-3190), genotype 1b C316N (constructed in-house by site directed mutagenesis of the NS5B gene of the ET subline), or genotype 1a C316Y (constructed in-house by site directed mutagenesis of the NS5B gene of H77 SG-Neo containing adaptive mutations P1496L and S2204I as described by Blight, K. J., McKeating, J. A., Marcotrigiano, J., and Rice, C. M. Journal of Virology, 2003, 77, 3180-3190) linked to a firefly luciferase reporter gene. Monolayers nearing confluency were stripped from growth flasks with versene-trypsin solution and the cells re-suspended in assay medium comprising DMEM. 95 μL of suspension containing either 15,000 cells (genotype 1b luciferase replicon) or 20,000 cells (genotype 1a luciferase replicon) were added to all wells of a 96 well plate (Perkin Elmer, #6005686), except medium controls in column 12 of the assay plate. The cell suspension was dosed with 5 μL of compound solution and the plate was incubated for 48 hours at 37° C. in a 5% CO2 atmosphere.
(§3) For toxicity the cells in one plate were treated with Cell Titer Glo (Promega, #G7573). A solution of Cell Titer Glo was prepared according to the manufacturer's instructions, and 100 μL added to each well. The plate was then read for luminescence on an Envision. For potency a solution of Steady Glo (Promega, #E2550) was prepared according to the manufacturer's instructions and 100 μL added to each well. After a twenty minute incubation the plate was then read for luminescence on an Envision.
(§4) Potency: The luminescence values from all compound-free wells containing cells were averaged to obtain a positive control value. The mean luminescence value from the compound-free wells that had received no cells was used to provide the negative (background) control value. The readings from the wells at each compound concentration were taken and after the subtraction of the mean background from all values, were expressed as a percentage of the positive control signal. The quantifiable and specific reduction of luciferase signal in the presence of a drug is a direct measure of replicon inhibition. BioAssay Enterprise (CamebridgeSoft) with the XC50 module for curve fitting was used to plot the curve of percentage inhibition against compound concentration and derive the 50% inhibitory concentration (EC50) for the compound. EC50 is the effective concentration, that is, the concentration of compound where 50% maximal effect is observed. The EC50 values of two identical plates were averaged. The results are presented in Table 1 as EC50 for genotypes (GT) 1a, 1b, 1b 316N and 1a 316Y.

The test system of experiment [2] is sub-genomic HCV NS3-NS5B replicon genotype 1b (Huh-7 cells). As to the kind of experiment: Replicon luciferase cell based assay, genotype 1b. As to conditions: Hepatitis C virus; Huh-7 genotype 1b luciferase replicon, 48 hours; read-out: EC50 GT1b. The procedure: as §1, §2, §3, §4
In experiment [3] the test system is sub-genomic HCV NS3-NS5B replicon genotype 1a (Huh-7 cells). As to the kind of experiment: Replicon luciferase cell based assay, genotype 1a. The settings on record: Hepatitis C virus; Huh-7 genotype 1a luciferase replicon, 48 hours; read-out: EC50 GT 1a. The procedure:
as §1, §2, §3, §4

Experiment [4] deals with sub-genomic HCV NS3-NS5B replicon genotype 1b C316N (Huh-7 cells). As to the kind of experiment: Replicon luciferase cell based assay, genotype 1b C316N. The settings on record: Hepatitis C virus, Huh-7, 48 h, read-out: EC50 1b 316N. The procedure:
as §1, §2, §3, §4
On the technique in general: Replicon systems follow genome replication, usually without infectious particles.

As to `CNC(=O)c1c(-c2ccc(F)cc2)oc2cc(N(c3ccc(B(O)O)c(C#N)c3)S(C)(=O)=O)c(C3CC3)cc12` [Example 12, (2-cyano-4-(N-(5-cyclopropyl-2-(4-fluorophenyl)-3-(methylcarbamoyl)benzofuran-6-yl)methylsulfonamido)phenyl)boronic acid], the EC50 in experiment [1] was 11 to 200 nM; in experiment [2] it was 1 to 10 nM; in experiment [3], 1 to 10 nM; in experiment [4], 1 to 10 nM.
For `CNC(=O)c1c(-c2ccc(F)cc2)oc2cc(N(c3ccc(B(O)O)c(S(C)(=O)=O)c3)S(C)(=O)=O)c(C3CC3)cc12` [Example 16, (4-(N-(5-cyclopropyl-2-(4-fluorophenyl)-3-(methylcarbamoyl)benzofuran-6-yl)methylsulfonamido)-2-(methylsulfonyl)phenyl)boronic acid], the half-maximal effective concentration (EC50) in experiment [1] fell in the range of 11 to 200 nM; in experiment [2] it was 1 to 10 nM; in experiment [3] it was 1 to 10 nM; in experiment [4], 11 to 200 nM.
`CNC(=O)c1c(-c2ccc(Cl)cc2)oc2cc(N(c3ccc(B(O)O)c(Cl)c3)S(C)(=O)=O)c(C3CC3)cc12` [Example 2, (2-Chloro-4-(N-(2-(4-chlorophenyl)-5-cyclopropyl-3-(methylcarbamoyl)benzofuran-6-yl)methylsulfonamido)phenyl)boronic acid]: the concentration giving a half-maximal response (EC50) in experiment [1], in experiment [2], in experiment [3] and in experiment [4] was 1 to 10 nM in each case.
Take `CNC(=O)c1c(-c2ccc(F)cc2)oc2cc(N(c3cccc(CCB(O)O)c3)S(C)(=O)=O)c(C3CC3)cc12` [Example 26, (3-(N-(5-Cyclopropyl-2-(4-fluorophenyl)-3-(methylcarbamoyl)benzofuran-6-yl)methylsulfonamido)phenethyl)boronic acid]: the concentration giving a half-maximal response (EC50) lay in the range of 200 to 1000 nM in experiment [1], 1 to 10 nM in experiment [2], 1 to 10 nM in experiment [3] and 11 to 200 nM in experiment [4].
For `CNC(=O)c1c(-c2ccc(F)cc2)oc2cc(N(c3ccc(OCB(O)O)c(Cl)c3)S(C)(=O)=O)c(C3CC3)cc12` [Example 19, ((2-Chloro-4-(N-(5-cyclopropyl-2-(4-fluorophenyl)-3-(methylcarbamoyl)benzofuran-6-yl)methylsulfonamido)phenoxy)methyl)boronic acid], the EC50 in experiment [1], in experiment [2], in experiment [3] and in experiment [4] was 1 to 10 nM each time.
As to `CNC(=O)c1c(-c2ccc(F)cc2)oc2cc(N(c3ccc(B4OC(C)(C)C(C)(C)O4)c(C)c3)S(C)(=O)=O)c(C3CC3)cc12` [Example 22, 5-Cyclopropyl-2-(4-fluorophenyl)-N-methyl-6-(N-(3-methyl-4-(4,4,5,5-tetramethyl-1,3,2-dioxaborolan-2-yl)phenyl)methylsulfonamido)benzofuran-3-carboxamide], the concentration for a half-maximal effect (EC50) in experiment [1] fell in the range of 200 to 1000 nM; in experiment [2] it was 1 to 10 nM; in experiment [3], 1 to 10 nM; in experiment [4], 1 to 10 nM.
Consider `CNC(=O)c1c(-c2ccc(F)cc2)oc2cc(N(c3ccc(B(O)O)c(C(F)(F)F)c3)S(C)(=O)=O)c(C3CC3)cc12` [Example 10, (4-(N-(5-cyclopropyl-2-(4-fluorophenyl)-3-(methylcarbamoyl)benzofuran-6-yl)methylsulfonamido)-2-(trifluoromethyl)phenyl)boronic acid], for which the EC50 in experiment [1] was in the range of 11 to 200 nM; in experiment [2] it was 1 to 10 nM; in experiment [3], 1 to 10 nM; in experiment [4], 1 to 10 nM.
With `CNC(=O)c1c(-c2ccc(F)cc2)oc2cc(N(c3ccc(B(O)O)c(C(F)F)c3)S(C)(=O)=O)c(C3CC3)cc12` [Example 9, (4-(N-(5-cyclopropyl-2-(4-fluorophenyl)-3-(methylcarbamoyl)benzofuran-6-yl)methylsulfonamido)-2-(difluoromethyl)phenyl)boronic acid], the EC50 in experiment [1] is 11 to 200 nM; in experiment [2], 1 to 10 nM; in experiment [3] it was 1 to 10 nM; in experiment [4], 1 to 10 nM.
With `CNC(=O)c1c(-c2ccc(F)cc2)oc2cc(N(c3ccc(B(O)O)cc3F)S(C)(=O)=O)c(C3CC3)cc12` [Example 6, 4-(N-(5-cyclopropyl-2-(4-fluorophenyl)-3-(methylcarbamoyl)benzofuran-6-yl)methylsulfonamido)-3-fluorophenylboronic acid], the EC50 in experiment [1] was greater than 1000 nM; in experiment [2] it was 1 to 10 nM; in experiment [3], 1 to 10 nM; in experiment [4], 11 to 200 nM.
`CNC(=O)c1c(-c2ccc(Cl)cc2)oc2cc(N(c3ccc(B(O)O)c(F)c3)S(C)(=O)=O)c(C3CC3)cc12` [Example 7, 4-(N-(2-(4-chlorophenyl)-5-cyclopropyl-3-(methylcarbamoyl)benzofuran-6-yl)methylsulfonamido)-2-fluorophenylboronic acid]: the EC50 in experiment [1] lay in the range of 11 to 200 nM; in experiment [2], 1 to 10 nM; in experiment [3] it was 1 to 10 nM; in experiment [4] it was 1 to 10 nM.
For `CNC(=O)c1c(-c2ccc(F)cc2)oc2cc(N(c3ccc(B(O)O)c(F)c3)S(C)(=O)=O)c(C3CC3)cc12` [Example 5, 4-(N-(5-cyclopropyl-2-(4-fluorophenyl)-3-(methylcarbamoyl)benzofuran-6-yl)methylsulfonamido)-2-fluorophenylboronic acid], the concentration for a half-maximal effect (EC50) in experiment [1] was 11 to 200 nM; in experiment [2] it was 1 to 10 nM; in experiment [3], 1 to 10 nM; in experiment [4], 1 to 10 nM.
In the case of `CNC(=O)c1c(-c2ccc(Cl)cc2)oc2cc(N(c3ccc(B(O)O)c(C#N)c3)S(C)(=O)=O)c(C3CC3)cc12` [Example 21, (4-(N-(2-(4-Chlorophenyl)-5-cyclopropyl-3-(methylcarbamoyl)benzofuran-6-yl)methylsulfonamido)-2-cyanophenyl)boronic acid], the EC50 in experiment [1], in experiment [2], in experiment [3] and in experiment [4] was 1 to 10 nM throughout.
For the compound `CNC(=O)c1c(-c2ccc(F)cc2)oc2cc(N(c3ccc(CCB(O)O)c(Cl)c3)S(C)(=O)=O)c(C3CC3)cc12` [Example 23, (2-Chloro-4-(N-(5-cyclopropyl-2-(4-fluorophenyl)-3-(methylcarbamoyl)benzofuran-6-yl)methylsulfonamido)phenethyl)boronic acid], the EC50 in experiment [1] lay within 11 to 200 nM; in experiment [2], 1 to 10 nM; in experiment [3], 1 to 10 nM; in experiment [4] it was 11 to 200 nM.
